Source: article PMC4490784, “Compensatory induction of MYC expression by sustained CDK9 inhibition via a BRD4-dependent mechanism” (eLife, 2015)

Experiments:
Assay in all cases: KINOMEscan binding assay
[1] = molecular target: T1, IKK-alpha (Homo sapiens, UniProt O15111); conditions: read-out: % Retention on Solid Support
T1 construct: purchased DiscoveRx KINOMEscan
Procedure, shortened: (§1)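 Each kinase in a >400-member collection was probed for i-CDK9 binding via an active site-directed competition platform; test levels 1 and 10 µM.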

[2] = molecular target: T2, MARK3 (Homo sapiens, UniProt P27448); conditions: read-out: % Retention on Solid Support
T2 construct: purchased DiscoveRx KINOMEscan
Procedure, shortened: as §1

[3] = molecular target: T3, FLT3(N841I) (Homo sapiens, UniProt P36888, N841I); conditions: read-out: % Retention on Solid Support
T3 construct: purchased DiscoveRx KINOMEscan
Procedure, shortened: as §1

[4] = molecular target: T4, TRPM6 (Homo sapiens, UniProt Q9BX84); conditions: 1 µM i-CDK9; read-out: % Retention on Solid Support
T4 construct: purchased DiscoveRx KINOMEscan
Procedure, shortened: as §1

[5] = molecular target: T5, FLT1 (Homo sapiens, UniProt P17948); conditions: read-out: % Retention on Solid Support
T5 construct: purchased DiscoveRx KINOMEscan
Procedure, shortened: as §1

[6] = molecular target: T6, MAPKAPK2 (Homo sapiens, UniProt P49137); conditions: read-out: % Retention on Solid Support
T6 construct: purchased DiscoveRx KINOMEscan
Procedure, shortened: as §1

[7] = molecular target: T7, RSK2(Kin.Dom.1-N-terminal) (Homo sapiens, UniProt P51812); conditions: read-out: % Retention on Solid Support
T7 construct: RSK2(Kin.Dom.1-N-terminal); purchased DiscoveRx KINOMEscan
Procedure, shortened: as §1

[8] = molecular target: T8, EPHA6 (Homo sapiens, UniProt Q9UF33); conditions: read-out: % Retention on Solid Support
T8 construct: purchased DiscoveRx KINOMEscan
Procedure, shortened: as §1

[9] = molecular target: T9, ERN1 (Homo sapiens, UniProt O75460); conditions: read-out: % Retention on Solid Support
T9 construct: purchased DiscoveRx KINOMEscan
Procedure, shortened: as §1

[10] = molecular target: T10, MEK5 (Homo sapiens, UniProt Q13163); conditions: 1 µM i-CDK9; read-out: % Retention on Solid Support
T10 construct: purchased DiscoveRx KINOMEscan
Procedure, shortened: as §1

[11] = molecular target: T11, TIE1 (Homo sapiens, UniProt P35590); conditions: read-out: % Retention on Solid Support
T11 construct: purchased DiscoveRx KINOMEscan
Procedure, shortened: as §1

[12] = molecular target: T12, LIMK1 (Homo sapiens, UniProt P53667); conditions: read-out: % Retention on Solid Support
T12 construct: purchased DiscoveRx KINOMEscan
Procedure, shortened: as §1

[13] = molecular target: T13, RET (Homo sapiens, UniProt P07949); conditions: read-out: % Retention on Solid Support
T13 construct: purchased DiscoveRx KINOMEscan
Procedure, shortened: as §1

[14] = molecular target: T14, TIE2 (Homo sapiens, UniProt Q02763); conditions: read-out: % Retention on Solid Support
T14 construct: purchased DiscoveRx KINOMEscan
Procedure, shortened: as §1

[15] = molecular target: T15, MAP4K2 (Homo sapiens, UniProt Q12851); conditions: read-out: % Retention on Solid Support
T15 construct: purchased DiscoveRx KINOMEscan
Procedure, shortened: as §1

[16] = molecular target: T16, CSF1R (Homo sapiens, UniProt P07333); conditions: read-out: % Retention on Solid Support
T16 construct: purchased DiscoveRx KINOMEscan
Procedure, shortened: as §1

[17] = molecular target: S6K1 (Homo sapiens, UniProt P23443); conditions: 1 µM i-CDK9; read-out: % Retention on Solid Support
Procedure, shortened: as §1

[18] = molecular target: T17, EPHB4 (Homo sapiens, UniProt P54760); conditions: read-out: % Retention on Solid Support
T17 construct: purchased DiscoveRx KINOMEscan
T17 sequence (P54760 16-987): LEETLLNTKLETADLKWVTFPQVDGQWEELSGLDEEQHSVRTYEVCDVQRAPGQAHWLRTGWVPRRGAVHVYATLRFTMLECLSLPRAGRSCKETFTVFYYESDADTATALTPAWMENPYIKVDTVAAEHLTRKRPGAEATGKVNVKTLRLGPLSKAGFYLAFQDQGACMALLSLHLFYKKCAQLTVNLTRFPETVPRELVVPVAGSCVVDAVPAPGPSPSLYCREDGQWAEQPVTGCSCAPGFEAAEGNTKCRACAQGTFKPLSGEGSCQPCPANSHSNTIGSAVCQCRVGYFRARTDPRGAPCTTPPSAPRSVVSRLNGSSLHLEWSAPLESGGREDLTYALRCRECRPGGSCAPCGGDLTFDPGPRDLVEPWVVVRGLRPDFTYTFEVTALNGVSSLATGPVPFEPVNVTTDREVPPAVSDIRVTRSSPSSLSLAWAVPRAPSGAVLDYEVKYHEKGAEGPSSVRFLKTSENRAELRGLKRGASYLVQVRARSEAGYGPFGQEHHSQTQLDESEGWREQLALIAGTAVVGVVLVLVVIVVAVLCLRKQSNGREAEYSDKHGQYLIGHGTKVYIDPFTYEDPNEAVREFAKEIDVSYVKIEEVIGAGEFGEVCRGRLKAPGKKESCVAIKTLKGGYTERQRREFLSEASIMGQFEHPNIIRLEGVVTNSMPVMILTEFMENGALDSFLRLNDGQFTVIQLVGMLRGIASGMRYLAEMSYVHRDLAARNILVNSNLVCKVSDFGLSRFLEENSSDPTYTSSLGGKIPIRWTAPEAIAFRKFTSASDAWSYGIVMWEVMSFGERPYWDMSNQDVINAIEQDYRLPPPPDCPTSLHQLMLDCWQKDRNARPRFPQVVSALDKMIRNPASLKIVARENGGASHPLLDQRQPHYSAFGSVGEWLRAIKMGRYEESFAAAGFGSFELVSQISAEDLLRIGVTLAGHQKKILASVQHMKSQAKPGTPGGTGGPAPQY
Procedure, shortened: as §1

[19] = molecular target: T18, NDR1 (Homo sapiens, UniProt Q15208); conditions: read-out: % Retention on Solid Support
T18 construct: purchased DiscoveRx KINOMEscan
Procedure, shortened: as §1

T7 sequence (P51812 1-397 limits assumed): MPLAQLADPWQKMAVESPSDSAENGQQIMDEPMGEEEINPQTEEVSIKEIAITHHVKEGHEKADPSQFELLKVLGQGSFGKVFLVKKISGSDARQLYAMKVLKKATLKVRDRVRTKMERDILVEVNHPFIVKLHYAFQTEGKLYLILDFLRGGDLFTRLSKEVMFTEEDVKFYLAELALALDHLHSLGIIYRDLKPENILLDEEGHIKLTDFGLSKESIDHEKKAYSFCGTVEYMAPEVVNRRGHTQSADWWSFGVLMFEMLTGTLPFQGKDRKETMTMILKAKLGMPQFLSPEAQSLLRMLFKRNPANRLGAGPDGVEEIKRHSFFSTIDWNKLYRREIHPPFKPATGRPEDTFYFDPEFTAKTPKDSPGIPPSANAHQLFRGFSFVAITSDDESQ
T5 sequence (P17948 27-1338): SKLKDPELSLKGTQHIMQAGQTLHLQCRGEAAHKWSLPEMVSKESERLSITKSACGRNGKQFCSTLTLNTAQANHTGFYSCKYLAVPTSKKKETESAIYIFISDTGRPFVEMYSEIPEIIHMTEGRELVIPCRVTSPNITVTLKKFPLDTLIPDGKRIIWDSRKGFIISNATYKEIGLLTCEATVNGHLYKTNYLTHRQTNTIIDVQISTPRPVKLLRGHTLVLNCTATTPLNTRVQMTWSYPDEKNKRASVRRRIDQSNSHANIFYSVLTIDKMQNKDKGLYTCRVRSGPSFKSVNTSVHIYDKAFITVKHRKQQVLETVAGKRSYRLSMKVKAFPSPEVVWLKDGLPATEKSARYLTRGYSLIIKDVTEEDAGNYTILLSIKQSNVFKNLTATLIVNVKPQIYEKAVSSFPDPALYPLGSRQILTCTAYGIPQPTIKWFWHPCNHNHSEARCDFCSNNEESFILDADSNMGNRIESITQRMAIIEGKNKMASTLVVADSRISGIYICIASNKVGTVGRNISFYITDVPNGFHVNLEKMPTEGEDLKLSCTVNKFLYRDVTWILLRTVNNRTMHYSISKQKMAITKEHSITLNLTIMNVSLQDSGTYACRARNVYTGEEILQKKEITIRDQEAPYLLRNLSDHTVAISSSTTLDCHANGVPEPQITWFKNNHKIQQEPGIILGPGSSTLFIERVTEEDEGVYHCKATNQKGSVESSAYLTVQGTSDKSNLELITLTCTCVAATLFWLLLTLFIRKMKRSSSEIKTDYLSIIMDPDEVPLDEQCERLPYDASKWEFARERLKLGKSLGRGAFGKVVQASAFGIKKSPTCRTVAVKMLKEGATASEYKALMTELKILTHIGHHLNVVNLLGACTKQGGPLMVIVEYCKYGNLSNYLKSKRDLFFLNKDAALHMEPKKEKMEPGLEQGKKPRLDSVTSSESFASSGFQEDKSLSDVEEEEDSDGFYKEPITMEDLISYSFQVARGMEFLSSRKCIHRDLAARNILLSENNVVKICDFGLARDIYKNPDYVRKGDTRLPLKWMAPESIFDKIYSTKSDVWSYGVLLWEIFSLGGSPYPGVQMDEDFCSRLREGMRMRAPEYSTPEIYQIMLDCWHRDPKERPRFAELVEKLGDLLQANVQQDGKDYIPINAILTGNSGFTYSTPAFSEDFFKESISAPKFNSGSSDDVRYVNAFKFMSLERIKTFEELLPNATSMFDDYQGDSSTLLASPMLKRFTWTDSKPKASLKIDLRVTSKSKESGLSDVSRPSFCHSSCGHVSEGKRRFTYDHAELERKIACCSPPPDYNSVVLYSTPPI
T6 sequence (P49137 whole entry): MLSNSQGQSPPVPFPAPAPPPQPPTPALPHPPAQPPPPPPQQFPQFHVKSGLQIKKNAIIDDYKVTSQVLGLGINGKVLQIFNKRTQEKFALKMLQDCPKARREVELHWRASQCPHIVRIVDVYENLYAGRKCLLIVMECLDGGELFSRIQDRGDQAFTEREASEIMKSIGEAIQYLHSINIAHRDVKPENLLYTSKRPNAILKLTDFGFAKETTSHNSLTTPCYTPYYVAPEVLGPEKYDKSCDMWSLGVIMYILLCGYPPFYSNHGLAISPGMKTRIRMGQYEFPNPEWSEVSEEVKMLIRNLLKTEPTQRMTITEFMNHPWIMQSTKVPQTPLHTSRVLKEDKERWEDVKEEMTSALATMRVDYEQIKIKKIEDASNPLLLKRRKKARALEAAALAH
T18 sequence (Q15208 whole entry): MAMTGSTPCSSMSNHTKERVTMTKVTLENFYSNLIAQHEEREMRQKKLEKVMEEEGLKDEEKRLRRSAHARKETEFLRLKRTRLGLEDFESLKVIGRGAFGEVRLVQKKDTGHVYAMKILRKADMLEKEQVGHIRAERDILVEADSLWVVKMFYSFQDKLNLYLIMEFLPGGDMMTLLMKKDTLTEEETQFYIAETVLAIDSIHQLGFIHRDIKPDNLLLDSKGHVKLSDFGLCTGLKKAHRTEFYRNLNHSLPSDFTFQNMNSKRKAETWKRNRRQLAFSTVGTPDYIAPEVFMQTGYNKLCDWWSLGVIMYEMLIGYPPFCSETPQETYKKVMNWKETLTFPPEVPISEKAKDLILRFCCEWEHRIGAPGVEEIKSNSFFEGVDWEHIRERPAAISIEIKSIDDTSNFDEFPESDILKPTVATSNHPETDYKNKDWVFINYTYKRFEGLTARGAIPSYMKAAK
T16 sequence (P07333 20-972): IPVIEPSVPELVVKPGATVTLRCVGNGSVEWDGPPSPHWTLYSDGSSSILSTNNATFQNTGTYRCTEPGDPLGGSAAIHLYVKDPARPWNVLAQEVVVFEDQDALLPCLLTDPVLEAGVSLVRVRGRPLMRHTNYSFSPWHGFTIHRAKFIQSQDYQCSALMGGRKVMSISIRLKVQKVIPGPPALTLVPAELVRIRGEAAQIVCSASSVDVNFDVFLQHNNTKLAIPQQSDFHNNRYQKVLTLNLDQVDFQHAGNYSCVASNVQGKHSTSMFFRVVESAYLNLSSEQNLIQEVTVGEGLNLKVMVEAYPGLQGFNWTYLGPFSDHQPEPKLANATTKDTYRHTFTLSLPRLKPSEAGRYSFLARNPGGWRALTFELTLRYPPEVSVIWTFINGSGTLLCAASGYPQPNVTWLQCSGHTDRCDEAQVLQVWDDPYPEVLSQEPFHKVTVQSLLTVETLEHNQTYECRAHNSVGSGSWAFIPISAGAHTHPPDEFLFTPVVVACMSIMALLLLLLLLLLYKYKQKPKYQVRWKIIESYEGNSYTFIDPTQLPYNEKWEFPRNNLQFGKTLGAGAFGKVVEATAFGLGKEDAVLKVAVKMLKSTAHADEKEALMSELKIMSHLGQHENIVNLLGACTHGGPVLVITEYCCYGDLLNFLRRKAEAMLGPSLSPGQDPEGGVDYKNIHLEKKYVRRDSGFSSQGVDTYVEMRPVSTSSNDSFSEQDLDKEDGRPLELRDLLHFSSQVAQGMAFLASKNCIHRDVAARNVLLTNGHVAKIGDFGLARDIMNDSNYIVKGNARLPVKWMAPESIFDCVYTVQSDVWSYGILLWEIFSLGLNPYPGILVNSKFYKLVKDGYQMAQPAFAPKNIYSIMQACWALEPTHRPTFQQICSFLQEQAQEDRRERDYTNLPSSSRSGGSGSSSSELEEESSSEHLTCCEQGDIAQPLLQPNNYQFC
T14 sequence (Q02763 23-1124): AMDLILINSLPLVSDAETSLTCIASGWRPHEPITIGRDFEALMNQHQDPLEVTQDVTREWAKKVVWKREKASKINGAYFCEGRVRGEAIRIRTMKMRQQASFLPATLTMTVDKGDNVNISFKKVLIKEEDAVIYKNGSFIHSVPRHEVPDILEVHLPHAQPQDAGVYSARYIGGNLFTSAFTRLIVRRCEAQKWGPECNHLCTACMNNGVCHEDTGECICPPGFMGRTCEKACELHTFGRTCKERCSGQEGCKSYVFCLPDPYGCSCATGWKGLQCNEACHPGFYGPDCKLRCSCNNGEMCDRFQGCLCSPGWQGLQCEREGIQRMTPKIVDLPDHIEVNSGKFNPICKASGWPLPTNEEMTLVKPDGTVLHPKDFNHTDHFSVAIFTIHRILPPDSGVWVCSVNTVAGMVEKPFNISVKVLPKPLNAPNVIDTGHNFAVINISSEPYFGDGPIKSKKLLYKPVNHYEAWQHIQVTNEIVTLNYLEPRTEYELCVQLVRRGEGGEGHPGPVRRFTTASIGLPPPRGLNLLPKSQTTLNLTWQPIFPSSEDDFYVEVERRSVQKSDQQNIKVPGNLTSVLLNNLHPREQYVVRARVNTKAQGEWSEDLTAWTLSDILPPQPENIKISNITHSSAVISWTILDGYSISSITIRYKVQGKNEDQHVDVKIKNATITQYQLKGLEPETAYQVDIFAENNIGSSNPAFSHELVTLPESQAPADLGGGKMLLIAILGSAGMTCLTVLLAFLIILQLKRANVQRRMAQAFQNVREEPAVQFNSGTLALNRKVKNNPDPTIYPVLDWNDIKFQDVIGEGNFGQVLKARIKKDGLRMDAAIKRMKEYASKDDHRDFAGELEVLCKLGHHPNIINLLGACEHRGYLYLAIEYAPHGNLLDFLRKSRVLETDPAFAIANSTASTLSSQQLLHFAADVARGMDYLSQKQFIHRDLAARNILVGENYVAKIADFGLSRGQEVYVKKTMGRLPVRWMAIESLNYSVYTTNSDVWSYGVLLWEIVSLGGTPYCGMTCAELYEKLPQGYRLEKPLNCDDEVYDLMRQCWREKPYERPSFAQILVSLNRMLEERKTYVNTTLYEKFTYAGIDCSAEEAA
T10 sequence (Q13163 whole entry): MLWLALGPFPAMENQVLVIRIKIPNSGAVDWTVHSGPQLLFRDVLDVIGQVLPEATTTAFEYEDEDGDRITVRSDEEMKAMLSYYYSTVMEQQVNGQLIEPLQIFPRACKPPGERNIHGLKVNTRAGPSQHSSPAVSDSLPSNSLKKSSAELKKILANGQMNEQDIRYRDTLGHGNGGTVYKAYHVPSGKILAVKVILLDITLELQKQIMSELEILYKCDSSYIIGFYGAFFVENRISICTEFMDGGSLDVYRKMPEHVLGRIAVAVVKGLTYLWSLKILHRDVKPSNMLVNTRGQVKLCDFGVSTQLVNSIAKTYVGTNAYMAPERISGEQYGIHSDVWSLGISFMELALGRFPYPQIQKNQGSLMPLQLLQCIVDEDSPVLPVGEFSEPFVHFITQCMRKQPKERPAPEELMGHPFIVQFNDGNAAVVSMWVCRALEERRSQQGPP

`N[C@H]1CC[C@H](Nc2cc(-c3cccc(NCc4cccc(F)c4)n3)c(Cl)cn2)CC1` [i-CDK9, N2′-(trans-4-aminocyclohexyl)-5′-chloro-N6-(3-fluorobenzyl)-2,4′-bipyridine-2′,6-diamine] was tested, and the remaining binding at 1 µM ([1]; 1 µM i-CDK9) was 85%, the remaining binding at 10 µM ([1]; 10 µM i-CDK9) was 71% and the remaining binding at 1 µM ([2]; 1 µM i-CDK9) was 94%. It also gave a remaining binding at 10 µM ([2]; 10 µM i-CDK9) of 71%, a remaining binding at 1 µM ([3]; 1 µM i-CDK9) of 48% and a remaining binding at 10 µM ([3]; 10 µM i-CDK9) of 72%. It also gave a remaining binding at 1 µM [4] of 92%, a remaining binding at 1 µM ([5]; 1 µM i-CDK9) of 100% and a remaining binding at 10 µM ([5]; 10 µM i-CDK9) of 81%. The remaining binding at 1 µM ([6]; 1 µM i-CDK9) was 100%, the remaining binding at 10 µM ([6]; 10 µM i-CDK9) was 100% and the remaining binding at 1 µM ([7]; 1 µM i-CDK9) was 86%. The remaining binding at 10 µM ([7]; 10 µM i-CDK9) was 76%, the remaining binding at 1 µM ([8]; 1 µM i-CDK9) was 100% and the remaining binding at 10 µM ([8]; 10 µM i-CDK9) was 91%. The remaining binding at 1 µM ([9]; 1 µM i-CDK9) was 100%, the remaining binding at 10 µM ([9]; 10 µM i-CDK9) was 62% and the remaining binding at 1 µM [10] was 100%. It also gave a remaining binding at 1 µM ([11]; 1 µM i-CDK9) of 85%, a remaining binding at 10 µM ([11]; 10 µM i-CDK9) of 100% and a remaining binding at 1 µM ([12]; 1 µM i-CDK9) of 90%. For the same molecule, the remaining binding at 10 µM ([12]; 10 µM i-CDK9) was 100%, the remaining binding at 1 µM ([13]; 1 µM i-CDK9) was 100% and the remaining binding at 10 µM ([13]; 10 µM i-CDK9) was 100%. The remaining binding at 1 µM ([14]; 1 µM i-CDK9) was 82%, the remaining binding at 10 µM ([14]; 10 µM i-CDK9) was 100% and the remaining binding at 1 µM ([15]; 1 µM i-CDK9) was 64%. It also gave a remaining binding at 10 µM ([15]; 10 µM i-CDK9) of 10%, a remaining binding at 1 µM ([16]; 1 µM i-CDK9) of 59% and a remaining binding at 10 µM ([16]; 10 µM i-CDK9) of 100%. It also gave a remaining binding at 1 µM [17] of 100%, a remaining binding at 1 µM ([18]; 1 µM i-CDK9) of 100% and a remaining binding at 10 µM ([18]; 10 µM i-CDK9) of 100%. It also gave a remaining binding at 1 µM ([19]; 1 µM i-CDK9) of 100% and a remaining binding at 10 µM ([19]; 10 µM i-CDK9) of 88%.
